# Measurements from patent US20170320870A1 (Medical Research Council Technology, priority 2009, published 2017).
# Biological target: T1, LRRK2 wild type (recombinant human, catalytic domain amino acids 970-2527, GST-tagged) (Homo sapiens, UniProt Q5S007)
# T1 construct: The wild type used was recombinant human, catalytic domain (amino acids 970-2527) GST-tagged, expressed in insect cells; GST; purchased Invitrogen Corporation PV4873; host or cells: insect cells
# Assay: LRRK2 wild type protein kinase assay ([γ-33P] ATP, peptide substrate […]), IC50
# Assay type: biochemical
# Conditions: LRRK2 (variant not given); read-out: Potency score, LRRK2 IC50
# Description: All LRRK2 protein kinases were of human origin and were sourced from Invitrogen Corporation (Carlsbad, Calif. 92008 USA) unless otherwise indicated. The active mutant used was recombinant human, catalytic domain (amino acids 970-2527) containing a G2019S mutation, GST-tagged, expressed in insect cells (Invitrogen Cat#PV4881). The wild type used was recombinant human, catalytic domain (amino acids 970-2527) GST-tagged, expressed in insect cells (Invitrogen Cat#PV4873). The kinase dead mutant used was recombinant human, catalytic domain (amino acids 970-2527) containing a D1994A mutation, GST-tagged, expressed in insect cells (Invitrogen Cat#PM4041AE). No special measures were taken to activate any of the kinases.
# All assays were carried out at room temperature (˜21° C.) and were linear with respect to time and enzyme concentration under the conditions used. Assays were performed for 180 min in a 96 well format. LRRK2 was present at a concentration of approximately 5 nM. The enzyme was diluted and assayed in 50 mM Tris-HCl pH7.5, 0.1 mM EGTA, 1 mM DTT and 10 mM MgCl2. The concentration of magnesium chloride in the assay was 10 mM. The [γ-33P] […] The peptide substrate in the assay was […] at 100 μM.
# The assays were initiated with Mg/ATP and stopped by the addition of 25 μl/well 50% orthophosphoric acid. Reactions were harvested onto Whatman P81 Unifilter Plates (Fisher Scientific. Loughborough, LE115RG, UK. Cat# FDU-105-020U) using a Tomtec harvester. (Tomtec Hamden, Conn. 06514. USA) Plates were counted using a Perkin Elmer Top Count NX7. (Perkin Elmer, Shelton Conn. 06484-4794 USA)
# IC50 values of inhibitors were determined after carrying out assays at 10 different concentrations of each compound in duplicate.
# T1 sequence (Q5S007 970-2527): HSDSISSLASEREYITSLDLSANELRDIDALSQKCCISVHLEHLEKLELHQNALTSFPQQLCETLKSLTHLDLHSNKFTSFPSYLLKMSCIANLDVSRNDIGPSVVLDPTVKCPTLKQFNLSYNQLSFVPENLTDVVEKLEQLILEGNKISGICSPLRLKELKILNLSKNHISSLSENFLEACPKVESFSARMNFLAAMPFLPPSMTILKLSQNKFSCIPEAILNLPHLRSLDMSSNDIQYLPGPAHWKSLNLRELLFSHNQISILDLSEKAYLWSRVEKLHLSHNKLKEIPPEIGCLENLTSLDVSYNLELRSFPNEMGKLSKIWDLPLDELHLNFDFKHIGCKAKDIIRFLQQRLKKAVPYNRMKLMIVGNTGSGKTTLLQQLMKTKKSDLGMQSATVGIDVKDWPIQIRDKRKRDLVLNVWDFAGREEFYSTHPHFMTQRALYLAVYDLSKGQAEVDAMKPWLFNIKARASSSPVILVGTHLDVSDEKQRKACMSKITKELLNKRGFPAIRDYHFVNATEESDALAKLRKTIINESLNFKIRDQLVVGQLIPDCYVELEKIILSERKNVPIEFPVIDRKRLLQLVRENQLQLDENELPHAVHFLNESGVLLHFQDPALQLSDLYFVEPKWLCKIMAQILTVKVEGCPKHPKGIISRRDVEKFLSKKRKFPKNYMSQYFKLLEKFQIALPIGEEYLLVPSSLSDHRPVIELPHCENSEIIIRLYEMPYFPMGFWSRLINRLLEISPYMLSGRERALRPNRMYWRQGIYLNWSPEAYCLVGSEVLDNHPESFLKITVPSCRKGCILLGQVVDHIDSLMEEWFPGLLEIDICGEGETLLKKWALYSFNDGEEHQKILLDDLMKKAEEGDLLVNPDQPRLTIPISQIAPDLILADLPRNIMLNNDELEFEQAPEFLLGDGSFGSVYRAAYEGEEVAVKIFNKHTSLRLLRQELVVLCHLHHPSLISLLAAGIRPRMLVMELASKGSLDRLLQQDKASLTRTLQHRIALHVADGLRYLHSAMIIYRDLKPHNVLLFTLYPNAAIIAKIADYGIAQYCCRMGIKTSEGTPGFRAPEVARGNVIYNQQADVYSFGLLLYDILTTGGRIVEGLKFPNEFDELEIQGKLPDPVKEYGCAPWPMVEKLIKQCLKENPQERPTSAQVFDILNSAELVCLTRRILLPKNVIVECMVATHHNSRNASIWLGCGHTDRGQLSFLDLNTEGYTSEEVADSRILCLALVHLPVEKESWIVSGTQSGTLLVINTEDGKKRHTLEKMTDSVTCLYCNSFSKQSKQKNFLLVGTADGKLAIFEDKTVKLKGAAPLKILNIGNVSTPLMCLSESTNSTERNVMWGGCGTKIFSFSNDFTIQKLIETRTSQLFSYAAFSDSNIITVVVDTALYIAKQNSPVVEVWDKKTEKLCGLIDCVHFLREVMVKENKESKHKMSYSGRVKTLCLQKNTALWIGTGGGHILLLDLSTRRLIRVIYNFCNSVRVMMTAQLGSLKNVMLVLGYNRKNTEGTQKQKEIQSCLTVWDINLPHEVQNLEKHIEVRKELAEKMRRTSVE
row,IC50 [µM],SMILES
1,0.1 to 1,"Cc1n[nH]c2ccnc(N[C@@H](C)C3CC3)c12 [Example 42, ((S)-1-Cyclopropyl-ethyl)-(3-methyl-1H-pyrazolo[4,3-c]pyridin-4-yl)-amine]"
2,1 to 10,"Cc1n[nH]c2ccnc(N[C@H](C)C3CC3)c12 [Example 43, ((R)-1-Cyclopropyl-ethyl)-(3-methyl-1H-pyrazolo[4,3-c]pyridin-4-yl)-amine]"
3,0.1 to 1,CC[C@H](C)Nc1nccc2[nH]nc(C)c12 [Example 44]
4,1 to 10,"Cc1n[nH]c2ccnc(NC(C)CC(C)C)c12 (centres unmarked) [Example 45, (1,3-Dimethyl-butyl)-(3-methyl-1H-pyrazolo[4,3-c]pyridin-4-yl)-amine]"
5,0.1 to 1,"Cc1n[nH]c2ccnc(NC3CCS(=O)(=O)CC3)c12 [Example 46, (1,1-Dioxo-hexahydro-1λ^6-thiopyran-4-yl)-(3-methyl-1H-pyrazolo[4,3-c]pyridin-4-yl)-amine]"
6,1 to 10,"Cc1n[nH]c2ccnc(-c3cnn(C)c3)c12 [Example 47, 3-Methyl-4-(1-methyl-1H-pyrazol-4-yl)-1H-pyrazolo[4,3-c]pyridine]"
7,0.1 to 1,"Cc1n[nH]c2ccnc(-c3ccco3)c12 [Example 48, 4-Furan-2-yl-3-methyl-1H-pyrazolo[4,3-c]pyridine]"
8,0.1 to 1,"Cc1n[nH]c2ccnc(-c3ccccc3F)c12 [Example 49, 4-(2-Fluoro-phenyl)-3-methyl-1H-pyrazolo[4,3-c]pyridine]"
9,1 to 10,"Cc1n[nH]c2ccnc(-c3ccc(F)cc3)c12 [Example 50, 4-(4-Fluoro-phenyl)-3-methyl-1H-pyrazolo[4,3-c]pyridine]"
10,1 to 10,"Cc1n[nH]c2ccnc(-c3cccc(F)c3)c12 [Example 51, 4-(3-Fluoro-phenyl)-3-methyl-1H-pyrazolo[4,3-c]pyridine]"
11,1 to 10,"Cc1n[nH]c2ccnc(-c3cccc(NS(C)(=O)=O)c3)c12 [Example 52, N-[3-(3-Methyl-1H-pyrazolo[4,3-c]pyridin-4-yl)-phenyl]-methane-sulfonamide]"
12,1 to 10,"Cc1n[nH]c2ccnc(-c3ccc(N4CCOCC4)cc3)c12 [Example 53, 3-Methyl-4-(4-morpholin-4-yl-phenyl)-1H-pyrazolo[4,3-c] pyridine]"
13,1 to 10,"Cc1n[nH]c2ccnc(-c3ccc(C#N)cc3)c12 [Example 54, 4-(3-Methyl-1H-pyrazolo[4,3-c]pyridin-4-yl)-benzonitrile]"
14,0.1 to 1,"Cc1n[nH]c2ccnc(-c3ccc(CNS(C)(=O)=O)cc3)c12 [Example 55, N-[4-(3-Methyl-1H-pyrazolo[4,3-c]pyridin-4-yl)-benzyl]-methane-sulfonamide]"
15,1 to 10,"Cc1n[nH]c2ccnc(-c3ccccc3)c12 [Example 56, 3-Methyl-4-phenyl-1H-pyrazolo[4,3-c] pyridine]"
16,1 to 10,"COc1cccc(-c2nccc3[nH]nc(C)c23)c1 [Example 57, 4-(3-Methoxy-phenyl)-3-methyl-1H-pyrazolo[4,3-c]pyridine]"
17,1 to 10,"Cc1n[nH]c2ccnc(-c3ccoc3)c12 [Example 58, 4-Furan-3-yl-3-methyl-1H-pyrazolo[4,3-c]pyridine]"
18,0.1 to 1,"Cc1n[nH]c2ccnc(Nc3cccc(Cl)c3)c12 [Example 59, (3-Chloro-phenyl)-(3-methyl-1H-pyrazolo[4,3-c]pyridin-4-yl)-amine]"
19,0.1 to 1,"Cc1n[nH]c2ccnc(Nc3cncc(-c4ccc(C#N)cc4)c3)c12 [Example 60, 4-[5-(3-Methyl-1H-pyrazolo[4,3-c]pyridin-4-ylamino)-pyridin-3-yl]-benzonitrile]"

row,IC50 [µM],SMILES
1,0.1 to 1,"Cc1n[nH]c2ccnc(Nc3ccn(C)n3)c12 [Example 61, (3-Methyl-1H-pyrazolo[4,3-c]pyridin-4-yl)-(1-methyl-1H-pyrazol-3-yl)-amine]"
2,0.1 to 1,"Cc1n[nH]c2ccnc(Nc3ccccc3F)c12 [Example 62, (2-Fluoro-phenyl)-(3-methyl-1H-pyrazolo[4,3-c]pyridin-4-yl)-amine]"
3,0.1 to 1,"Cc1n[nH]c2ccnc(Nc3ccc(N4CCOCC4)nc3)c12 [Example 63, (3-Methyl-1H-pyrazolo[4,3-c]pyridin-4-yl)-(6-morpholin-4-yl-pyridin-3-yl)-amine]"
4,1 to 10,"Cc1n[nH]c2ccnc(Nc3ccc4cn(C)nc4c3)c12 [Example 64, (2-Methyl-2H-indazol-6-yl)-(3-methyl-1H-pyrazolo[4,3-c]pyridin-4-yl)-amine]"
5,0.1 to 1,"Cc1n[nH]c2ccnc(Nc3cccc(F)c3)c12 [Example 65, (3-Fluoro-phenyl)-(3-methyl-1H-pyrazolo[4,3-c]pyridin-4-yl)-amine]"
6,0.1 to 1,"Cc1n[nH]c2ccnc(Nc3cccc(C(F)(F)F)c3)c12 [Example 66, (3-Methyl-1H-pyrazolo[4,3-c]pyridin-4-yl)-(3-trifluoromethyl-phenyl)-amine]"
7,0.1 to 1,"Cc1n[nH]c2ccnc(Nc3cccc(Br)c3)c12 [Example 67, (3-Bromo-phenyl)-(3-methyl-1H-pyrazolo[4,3-c]pyridin-4-yl)-amine]"
8,0.1 to 1,"CCOc1ccccc1Nc1nccc2[nH]nc(C)c12 [Example 68, (2-Ethoxy-phenyl)-(3-methyl-1H-pyrazolo[4,3-c]pyridin-4-yl)-amine]"
9,0.1 to 1,"Cc1n[nH]c2ccnc(Nc3cc(F)cc(F)c3)c12 [Example 69, (3,5-Difluoro-phenyl)-(3-methyl-1H-pyrazolo[4,3-c]pyridin-4-yl)-amine]"
10,0.1 to 1,"Cc1n[nH]c2ccnc(Nc3ccccc3)c12 [Example 70, (3-Methyl-1H-pyrazolo[4,3-c]pyridin-4-yl)-phenyl-amine]"
11,1 to 10,"CCOc1cccc(Nc2nccc3[nH]nc(C)c23)c1 [Example 71, (3-Ethoxy-phenyl)-(3-methyl-1H-pyrazolo[4,3-c]pyridin-4-yl)-amine]"
12,0.1 to 1,"CCOc1ccc(Nc2nccc3[nH]nc(C)c23)cc1 [Example 72, (4-Ethoxy-phenyl)-(3-methyl-1H-pyrazolo[4,3-c]pyridin-4-yl)-amine]"
13,0.1 to 1,"Cc1n[nH]c2ccnc(Nc3cccc(NS(C)(=O)=O)c3)c12 [Example 73, N-[3-(3-Methyl-1H-pyrazolo[4,3-c]pyridin-4-ylamino)-phenyl]-methanesulfonamide]"
14,0.1 to 1,"Cc1n[nH]c2ccnc(Nc3ccc(C(=O)N(C)C)cc3)c12 [Example 74, N,N-Dimethyl-4-(3-methyl-1H-pyrazolo[4,3-c]pyridin-4-ylamino)-benzamide]"
15,0.1 to 1,"Cc1n[nH]c2ccnc(Nc3cccc(C(N)=O)c3)c12 [Example 76, 3-(3-Methyl-1H-pyrazolo[4,3-c]pyridin-4-ylamino)-benzamide]"
16,0.1 to 1,"Cc1n[nH]c2ccnc(Nc3cccc(O)c3)c12 [Example 77, 3-(3-Methyl-1H-pyrazolo[4,3-c]pyridin-4-ylamino)-phenol]"
17,1 to 10,"CC(=O)Nc1cccc(Nc2nccc3[nH]nc(C)c23)c1 [Example 78, N-[3-(3-Methyl-1H-pyrazolo[4,3-c]pyridin-4-ylamino)-phenyl]-acetamide]"
18,0.1 to 1,"CC(=O)Nc1ccc(Nc2nccc3[nH]nc(C)c23)cc1 [Example 79, N-[4-(3-Methyl-1H-pyrazolo[4,3-c]pyridin-4-ylamino)-phenyl]-acetamide]"

row,SMILES,IC50 [µM]
1,"Cc1n[nH]c2ccnc(Nc3ccc4c(c3)CN(C)CC4)c12 [Example 75, (3-Methyl-1H-pyrazolo[4,3-c]pyridin-4-yl)-(2-methyl-1,2,3,4-tetrahydro-isoquinolin-7-yl)-amine]",0.1 to 1
